Measured values published in patent US6043072A, “Nucleic acids encoding Taxus geranylgeranyl diphosphate synthase, and methods of use” (Washington State University Research Foundation, priority 1998, dated 2000).

Columns and labels:
[1] = target: T. canadensis GGPP synthase (Taxus canadensis, UniProt Q9ZPM3); assay: Kinetic evaluation of recombinant GGPP synthase (standard prenyltransferase assay, double reciprocal plots); assay type: biochemical; settings: for relative velocities of the reaction with allylic co-substrates: co-substrate at 12.5 and 25 mM, IPP and Mg^2+ at saturation
Chain of T. canadensis GGPP synthase (Q9ZPM3 99-393): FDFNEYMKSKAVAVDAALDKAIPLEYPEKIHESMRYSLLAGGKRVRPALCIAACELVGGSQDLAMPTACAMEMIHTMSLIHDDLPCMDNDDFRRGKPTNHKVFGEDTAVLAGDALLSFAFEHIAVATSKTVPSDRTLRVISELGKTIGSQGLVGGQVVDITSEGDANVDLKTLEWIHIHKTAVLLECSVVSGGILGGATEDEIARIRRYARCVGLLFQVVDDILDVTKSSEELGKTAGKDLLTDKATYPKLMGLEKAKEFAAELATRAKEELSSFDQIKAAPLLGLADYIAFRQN
Procedure: The reaction was quenched by the addition of 300 mil of methanol:conc. HCl (4:1, v/v), and the allylic diphosphate products were solvolyzed (50, 51) upon further incubation at 42° C. for 20 min. The resulting solvolysis products were extracted twice with 1 ml pentane, and were either analyzed by liquid scintillation counting (in toluene:ethanol (7:3, v/v) containing 0.4% Omnifluor (DuPont NEN); ^14 C counting efficiency=96.0%) or concentrated on ice under a gentle stream of Ar to […] for further analysis.

[2] = target: T1, GGPP synthase proteins (Taxus canadensis, UniProt Q9ZPM3); assay: Physical properties of GGPP synthase proteins isolated from various Taxus species (Table 1); assay type: biochemical, T. canadensis; T. brevifolia; T. cuspidata and T. baccata
T1 construct: values reportedly equal those of recombinant truncated (mature) T. canadensis enzyme
T1 sequence (Q9ZPM3 99-393): as above

[3] = tested on: T. canadensis suspension cell cultures; assay: Methyl jasmonate induction of suspension cell cultures: paclitaxel in medium and cell mass; assay type: cell-based
Procedure: Suspension cell cultures were treated with methyl jasmonate 7 d after subculture and harvested at 8, 12, 24, 48 or 168 h after elicitation, or immediately before induction. During this 7 d induction period, the wet cell mass increased by about 10% and the paclitaxel concentration in the medium (where the majority of the taxoids accumulate) rose from 2.5 mg/l to 32 mg/I, with the greatest increase occurring after 48 h. The concentration of paclitaxel was measured by calibrated HPLC with UV detection as described in Hezari et al, Arch. Biochem. Biophys., 337:185-190 (1997).

[4] = tested on: GGPP synthase mRNA; assay: RNA-blot analysis over the time course of methyl jasmonate induction; assay type: cell-based, T. canadensis; settings: at 8 h; elevated through at least 48 h
Procedure: (§1) Total RNA was isolated from T. canadensis suspension cell cultures using the method set forth in Example 1. Equivalent amounts of RNA […] from cells that had been harvested 8, 12, 24, 48, and 168 h after methyl jasmonate induction, as well as RNA isolated from non-induced cells (0 h), were separated by electrophoresis on a formaldehyde-denaturing agarose gel, along with RNA size standards (Promega Corporation, Madison, Wis.). The separated RNA was blotted to nylon membrane by capillary action and then fixed by UV irradiation. Radiolabeled probes corresponding to the full length GGPP synthase coding region (nucleotide 308 to nucleotide 1489 of the nucleic acid sequence set forth in SEQ ID NO:1), and to an internal fragment (nucleotides 173 to 1875 inclusive) of the taxadiene synthase cDNA reported in Wildung, M. R. and Croteau, R. (1996) J. Biol. […] The blot was incubated sequentially with each probe for 16 h at 65° C., then washed twice with 2×SSC at room temperature, and then thrice with 0.5×SSC at 65° C. The blot was imaged using a Bio-Rad GS-525 Molecular Imager® System and Molecular Analyst version 2.1 software.

[5] = tested on: taxadiene synthase mRNA; assay: as above; assay type: cell-based, T. canadensis; settings: at 8 h; elevated through at least 48 h
Procedure: as §1

[6] = tested on: GGPP synthase; assay: Enzyme activity in cell culture extracts after methyl jasmonate induction; assay type: cell-based, T. canadensis; settings: crude extracts, 0-168 h after induction (FIG. 5)
Procedure: (§2) The same T. canadensis cell cultures used for RNA blot analysis were also used to determine the relative activities of GGPP synthase and taxadiene synthase over the course of methyl jasmonate induction of paclitaxel biosynthesis. […] Particulate material and cellular debris were removed from the homogenates by centrifugation, first at 3000 g, then at 31,000 g, for 20 min at 4° C. Protein concentration in the supernatant used as the enzyme source was estimated by the method of Bradford (Bradford, M. M. (1976) Anal. Biochem. 72:24814 254). GGPP synthase activity was determined by the standard prenyltransferase assay described in Example 4, except that 100 μl of crude extract (150 μg protein) isolated from T. canadensis cell cultures was used as the enzyme source and the reactions were incubated for 10 min. Taxadiene synthase activity was determined by measuring the Mg^2+ -dependent conversion of [1-^3 H1 ]geranylgeranyl diphosphate (15 μM) to the olefin product as described in Hezari, M., Lewis, N. G. and Croteau, R. (1995) Arch. Biochem. Biophys., 322:437-444; […]., Gibson, D. M. and Croteau, R. (1997) Arch. Biochem. Biophys., 337:185-190. In this assay, 500 μl of the crude extract (750 μg protein) was incubated at 3 1° C. for 1 h.

[7] = tested on: taxadiene synthase; assay: as above; assay type: cell-based, T. canadensis; settings: crude extracts, 0-168 h after induction (FIG. 5)
Procedure: as §2

Structure (SMILES): CC(C)=CCC/C(C)=C/CC/C(C)=C/CO[P@@](=O)(O)OP(=O)(O)O (stereo in doubt) [FPP, farnesyl diphosphate]
- relative velocities of the reaction with allylic co-substrates [1]: 66%

Structure (SMILES): CC(C)=CCC/C(C)=C/COP(=O)(O)OP(=O)(O)O [GPP, geranyl diphosphate]
- relative velocities of the reaction with allylic co-substrates [1]: 100%

Structure (SMILES): [Mg+2] [Mg^2+]
- Km ([1]; double reciprocal plotting, remaining reactants at saturation): 35 µM
- Km [2]: 35 ± 3 µM

Structure (SMILES): [Mn+2] [Mn^2+]
- support of catalysis as divalent metal ion cofactor [1]: did not support catalysis

Structure (SMILES): CC/C=C\CC1C(=O)CCC1CC(=O)OC (centres unmarked) [methyl jasmonate]
- paclitaxel concentration in the medium ([3]; after 7 d induction period, rose from 2.5 mg/l): 32 mg/I
- increase of wet cell mass ([3]; during 7 d induction period): about 10%
- steady state mRNA level of GGPP synthase [4]: rapid increase
- steady state mRNA level of taxadiene synthase [5]: rapid increase
- GGPP synthase activity level [6]: rose steadily to 48 h
- taxadiene synthase activity level [7]: rose steadily to 48 h
